Assay results reported in ChEMBL document CHEMBL1933032, “Synthesis and evaluation of 4-alkoxy-[1'-cyclobutyl-spiro(3,4-dihydrobenzopyran-2,4'-piperidine)] analogues as histamine-3 receptor antagonists” (Bioorg Med Chem Lett, 2012).
One block for each compound: values may come before it.

Key:
Histamine H3 receptor [1] = biological target: Histamine H3 receptor (Homo sapiens, UniProt Q9Y5N1); experiment: Binding affinity to human histamine H3 receptor
Histamine H3 receptor [2] = biological target: Histamine H3 receptor (Rattus norvegicus, UniProt Q9QYN8); experiment: Binding affinity to rat histamine H3 receptor
Histamine H3 receptor (Rattus norvegicus, UniProt Q9QYN8), sequence (Q9QYN8 whole entry): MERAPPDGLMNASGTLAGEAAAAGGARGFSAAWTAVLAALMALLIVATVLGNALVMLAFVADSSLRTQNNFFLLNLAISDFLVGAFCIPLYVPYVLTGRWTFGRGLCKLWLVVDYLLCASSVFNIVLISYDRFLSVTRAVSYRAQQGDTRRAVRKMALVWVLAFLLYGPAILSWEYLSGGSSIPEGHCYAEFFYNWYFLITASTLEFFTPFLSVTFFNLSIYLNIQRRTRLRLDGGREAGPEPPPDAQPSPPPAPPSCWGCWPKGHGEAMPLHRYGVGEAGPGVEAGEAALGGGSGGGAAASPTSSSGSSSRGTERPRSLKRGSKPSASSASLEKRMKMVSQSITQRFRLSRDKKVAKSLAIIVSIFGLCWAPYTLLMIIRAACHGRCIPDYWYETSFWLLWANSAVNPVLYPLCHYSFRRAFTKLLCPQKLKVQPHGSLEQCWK

Histamine H1 receptor = Histamine H1 receptor (Homo sapiens, UniProt P35367); experiment: Binding affinity to human histamine H1 receptor
Histamine H1 receptor, sequence (P35367 whole entry): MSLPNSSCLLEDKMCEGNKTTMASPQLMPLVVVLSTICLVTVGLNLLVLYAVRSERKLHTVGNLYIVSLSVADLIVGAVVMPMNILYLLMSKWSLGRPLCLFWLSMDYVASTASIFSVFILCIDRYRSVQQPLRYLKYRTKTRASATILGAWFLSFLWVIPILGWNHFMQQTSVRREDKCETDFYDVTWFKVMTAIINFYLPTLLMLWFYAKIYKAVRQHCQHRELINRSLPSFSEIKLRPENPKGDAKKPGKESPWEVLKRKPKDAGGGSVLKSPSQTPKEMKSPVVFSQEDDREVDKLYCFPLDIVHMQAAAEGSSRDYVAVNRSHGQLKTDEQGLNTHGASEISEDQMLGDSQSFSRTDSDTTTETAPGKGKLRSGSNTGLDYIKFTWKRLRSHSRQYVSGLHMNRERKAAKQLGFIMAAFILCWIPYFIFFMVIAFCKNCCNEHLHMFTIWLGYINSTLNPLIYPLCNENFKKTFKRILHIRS

Histamine H2 receptor = Histamine H2 receptor (Homo sapiens, UniProt P25021); experiment: Binding affinity to human histamine H2 receptor
Histamine H2 receptor, sequence (P25021 whole entry): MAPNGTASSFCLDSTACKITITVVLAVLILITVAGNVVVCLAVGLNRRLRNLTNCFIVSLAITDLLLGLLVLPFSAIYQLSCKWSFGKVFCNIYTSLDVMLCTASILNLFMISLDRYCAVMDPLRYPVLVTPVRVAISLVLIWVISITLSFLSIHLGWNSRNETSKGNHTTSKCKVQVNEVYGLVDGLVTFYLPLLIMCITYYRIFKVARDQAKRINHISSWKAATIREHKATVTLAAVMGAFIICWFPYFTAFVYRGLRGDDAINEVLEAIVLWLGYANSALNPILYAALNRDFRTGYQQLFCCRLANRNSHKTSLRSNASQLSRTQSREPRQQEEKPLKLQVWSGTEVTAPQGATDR

Histamine H4 receptor = Histamine H4 receptor (Homo sapiens, UniProt Q9H3N8); experiment: Binding affinity to human histamine H4 receptor
[3] = Half life in human liver microsomes; assay type: ADME, Microsome
[4] = Half life in mouse liver microsomes; assay type: ADME, Microsome
[5] = Half life in rat liver microsomes; assay type: ADME, Microsome
[6] = Half life in monkey liver microsomes; assay type: ADME, Macaca mulatta, Microsome; settings: rhesus monkey
Cytochrome P450 2D6 = Cytochrome P450 2D6 (Homo sapiens, UniProt P10635); experiment: Inhibition of CYP2D6; assay type: ADME
Cytochrome P450 2D6, sequence (P10635 whole entry): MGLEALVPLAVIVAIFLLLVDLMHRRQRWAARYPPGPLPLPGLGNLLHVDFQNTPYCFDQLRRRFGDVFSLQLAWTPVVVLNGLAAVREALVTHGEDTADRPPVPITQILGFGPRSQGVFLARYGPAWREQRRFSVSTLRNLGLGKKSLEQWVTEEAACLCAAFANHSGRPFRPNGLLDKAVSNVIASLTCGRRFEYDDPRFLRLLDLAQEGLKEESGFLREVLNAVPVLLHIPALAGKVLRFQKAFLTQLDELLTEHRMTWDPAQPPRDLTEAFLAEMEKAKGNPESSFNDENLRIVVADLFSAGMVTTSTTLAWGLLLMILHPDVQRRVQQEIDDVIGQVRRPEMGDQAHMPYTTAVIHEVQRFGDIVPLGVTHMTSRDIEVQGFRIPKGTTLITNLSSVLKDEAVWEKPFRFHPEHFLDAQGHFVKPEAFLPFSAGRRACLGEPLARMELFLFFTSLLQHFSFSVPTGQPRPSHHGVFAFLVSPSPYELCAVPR

[7] = Half life in rat at 1 mg/kg, iv; assay type: ADME, organism-based; set-up: dose 1 mg/kg, route intravenous; settings: in vivo
[8] = Volume of distribution in rat at 1 mg/kg, iv; assay type: ADME, organism-based; set-up: dose 1 mg/kg, route intravenous; settings: in vivo
[9] = Clearance in rat at 1 mg/kg, iv; assay type: ADME, organism-based; set-up: dose 1 mg/kg, route intravenous; settings: in vivo
[10] = AUC (0 to t) in rat at 5 mg/kg, po; assay type: ADME, organism-based; set-up: dose 5 mg/kg, route oral; settings: plasma
[11] = Cmax in rat at 5 mg/kg, po; assay type: ADME, organism-based; set-up: dose 5 mg/kg, route oral; settings: in vivo
[12] = Oral bioavailability in rat at 5 mg/kg; assay type: ADME, organism-based; settings: in vivo
[13] = Ratio drug uptake in brain to plasma of rat at 5 mg/kg, po measured after 6 hrs; assay type: ADME, organism-based; set-up: dose 5 mg/kg, route oral; settings: read-out: BPR
[14] = Inhibition of nACh receptor at 10 uM
[15] = biological target: T1, Alpha-2C adrenergic receptor (Homo sapiens) (UniProt P18825); experiment: Inhibition of adrenergic Alpha-2C receptor at 10 uM
T1 sequence (whole entry): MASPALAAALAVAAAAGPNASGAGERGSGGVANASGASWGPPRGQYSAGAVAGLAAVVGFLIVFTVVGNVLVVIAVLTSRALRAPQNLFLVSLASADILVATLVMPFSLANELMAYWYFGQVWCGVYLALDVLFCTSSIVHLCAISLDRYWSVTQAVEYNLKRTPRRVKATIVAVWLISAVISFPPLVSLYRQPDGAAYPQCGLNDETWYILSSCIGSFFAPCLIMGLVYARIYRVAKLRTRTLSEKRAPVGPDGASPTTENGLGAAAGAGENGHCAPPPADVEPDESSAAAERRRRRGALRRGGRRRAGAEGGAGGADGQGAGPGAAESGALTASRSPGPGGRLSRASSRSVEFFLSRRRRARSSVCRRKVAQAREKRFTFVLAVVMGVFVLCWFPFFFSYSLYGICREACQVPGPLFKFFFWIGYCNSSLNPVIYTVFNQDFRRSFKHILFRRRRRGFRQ

[16] = biological target: T2, Alpha-1D adrenergic receptor (Homo sapiens) (UniProt P25100); experiment: Inhibition of adrenergic Alpha-1D receptor at 10 uM
T2 sequence (whole entry): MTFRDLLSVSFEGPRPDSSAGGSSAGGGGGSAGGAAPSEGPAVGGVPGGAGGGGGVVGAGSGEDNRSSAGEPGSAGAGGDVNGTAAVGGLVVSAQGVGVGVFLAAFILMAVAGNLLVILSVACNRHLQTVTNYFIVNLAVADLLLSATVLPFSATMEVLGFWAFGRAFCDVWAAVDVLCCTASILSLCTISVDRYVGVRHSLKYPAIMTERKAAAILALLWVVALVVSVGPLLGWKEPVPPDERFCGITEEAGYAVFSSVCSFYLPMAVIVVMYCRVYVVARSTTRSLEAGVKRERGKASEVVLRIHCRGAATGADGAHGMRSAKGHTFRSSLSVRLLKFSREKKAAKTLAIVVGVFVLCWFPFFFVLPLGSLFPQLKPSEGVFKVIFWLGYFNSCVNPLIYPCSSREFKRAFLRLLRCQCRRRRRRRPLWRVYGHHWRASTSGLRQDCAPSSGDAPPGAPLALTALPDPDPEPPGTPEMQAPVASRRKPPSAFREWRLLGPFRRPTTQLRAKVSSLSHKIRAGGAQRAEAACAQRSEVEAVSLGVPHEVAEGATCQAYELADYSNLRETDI

[17] = Plasma protein binding in human; assay type: ADME, cell-free; settings: read-out: PPB (converted)
[18] = Plasma protein binding in rat; assay type: ADME, cell-free; settings: read-out: PPB (converted)
[19] = Fraction unbound in rat brain homogenate; assay type: ADME, tissue-based
Rattus norvegicus = experiment: Inhibition of RAMH-induced dipsogenia in rat at 3 mg/kg, po; assay type: functional
Cytochrome P450 1A2 = biological target: T3, Cytochrome P450 1A2 (Homo sapiens, UniProt P05177); experiment: Inhibition of CYP1A2; assay type: ADME
T3 sequence (P05177 whole entry): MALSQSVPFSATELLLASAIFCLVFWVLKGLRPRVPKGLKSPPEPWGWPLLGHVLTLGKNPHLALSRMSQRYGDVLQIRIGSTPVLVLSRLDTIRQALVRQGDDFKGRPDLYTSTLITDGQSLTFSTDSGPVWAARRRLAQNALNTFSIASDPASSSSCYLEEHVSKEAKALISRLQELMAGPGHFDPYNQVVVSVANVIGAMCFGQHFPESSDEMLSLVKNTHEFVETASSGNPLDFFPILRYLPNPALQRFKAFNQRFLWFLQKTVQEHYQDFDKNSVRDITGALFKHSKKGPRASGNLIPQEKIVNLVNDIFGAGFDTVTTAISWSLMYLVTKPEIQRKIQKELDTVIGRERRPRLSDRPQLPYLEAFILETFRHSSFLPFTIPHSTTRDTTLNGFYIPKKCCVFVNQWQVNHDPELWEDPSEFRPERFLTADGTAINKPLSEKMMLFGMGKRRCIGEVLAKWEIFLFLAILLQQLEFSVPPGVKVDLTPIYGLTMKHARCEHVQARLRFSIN

Cytochrome P450 2C9 = Cytochrome P450 2C9 (Homo sapiens, UniProt P11712); experiment: Inhibition of CYP2C9; assay type: ADME
Cytochrome P450 2C9, sequence (P11712 whole entry): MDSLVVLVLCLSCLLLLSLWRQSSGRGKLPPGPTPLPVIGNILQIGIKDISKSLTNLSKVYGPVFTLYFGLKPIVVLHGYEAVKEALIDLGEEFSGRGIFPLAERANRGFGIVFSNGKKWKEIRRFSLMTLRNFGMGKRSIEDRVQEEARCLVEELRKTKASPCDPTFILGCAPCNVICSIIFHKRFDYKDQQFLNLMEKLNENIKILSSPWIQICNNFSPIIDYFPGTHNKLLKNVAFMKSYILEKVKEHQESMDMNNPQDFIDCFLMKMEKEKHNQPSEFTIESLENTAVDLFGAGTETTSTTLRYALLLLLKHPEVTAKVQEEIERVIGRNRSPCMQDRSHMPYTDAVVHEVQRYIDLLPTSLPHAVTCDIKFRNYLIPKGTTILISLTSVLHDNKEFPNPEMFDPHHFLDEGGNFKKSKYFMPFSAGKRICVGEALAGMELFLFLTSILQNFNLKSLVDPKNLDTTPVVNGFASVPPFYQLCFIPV

Cytochrome P450 2C19 = Cytochrome P450 2C19 (Homo sapiens, UniProt P33261); experiment: Inhibition of CYP2C19; assay type: ADME
Cytochrome P450 2C19, sequence (P33261 whole entry): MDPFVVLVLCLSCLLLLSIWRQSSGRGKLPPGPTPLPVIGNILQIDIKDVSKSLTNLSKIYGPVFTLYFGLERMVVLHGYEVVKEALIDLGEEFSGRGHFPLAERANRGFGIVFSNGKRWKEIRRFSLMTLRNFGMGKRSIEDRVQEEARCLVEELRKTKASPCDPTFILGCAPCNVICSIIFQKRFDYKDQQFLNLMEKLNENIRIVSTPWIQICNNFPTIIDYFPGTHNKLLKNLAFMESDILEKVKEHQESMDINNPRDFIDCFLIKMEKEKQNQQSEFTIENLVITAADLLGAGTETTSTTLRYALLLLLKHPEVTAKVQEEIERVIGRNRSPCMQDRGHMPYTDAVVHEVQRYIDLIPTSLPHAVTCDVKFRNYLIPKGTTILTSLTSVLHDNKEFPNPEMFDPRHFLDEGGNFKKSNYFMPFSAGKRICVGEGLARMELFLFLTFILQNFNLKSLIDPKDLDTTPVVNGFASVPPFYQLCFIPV

Cytochrome P450 3A4 = Cytochrome P450 3A4 (Homo sapiens, UniProt P08684); experiment: Inhibition of CYP3A4; assay type: ADME
Cytochrome P450 3A4, sequence (P08684 whole entry): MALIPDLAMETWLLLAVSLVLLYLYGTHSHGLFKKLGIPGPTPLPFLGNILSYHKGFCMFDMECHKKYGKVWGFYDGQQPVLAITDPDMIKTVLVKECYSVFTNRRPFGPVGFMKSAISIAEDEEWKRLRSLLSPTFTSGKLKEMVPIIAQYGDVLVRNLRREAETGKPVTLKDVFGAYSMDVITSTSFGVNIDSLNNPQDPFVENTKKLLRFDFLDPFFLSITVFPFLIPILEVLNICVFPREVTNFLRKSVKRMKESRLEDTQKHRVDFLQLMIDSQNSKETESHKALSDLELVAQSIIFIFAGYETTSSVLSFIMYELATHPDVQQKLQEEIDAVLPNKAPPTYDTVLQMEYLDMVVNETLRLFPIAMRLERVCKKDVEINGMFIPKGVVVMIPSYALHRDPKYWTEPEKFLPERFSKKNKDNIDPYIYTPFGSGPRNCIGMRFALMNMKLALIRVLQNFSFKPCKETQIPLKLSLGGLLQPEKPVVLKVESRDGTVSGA

Histamine H3 receptor (Homo sapiens, UniProt Q9Y5N1), sequence (Q9Y5N1 whole entry): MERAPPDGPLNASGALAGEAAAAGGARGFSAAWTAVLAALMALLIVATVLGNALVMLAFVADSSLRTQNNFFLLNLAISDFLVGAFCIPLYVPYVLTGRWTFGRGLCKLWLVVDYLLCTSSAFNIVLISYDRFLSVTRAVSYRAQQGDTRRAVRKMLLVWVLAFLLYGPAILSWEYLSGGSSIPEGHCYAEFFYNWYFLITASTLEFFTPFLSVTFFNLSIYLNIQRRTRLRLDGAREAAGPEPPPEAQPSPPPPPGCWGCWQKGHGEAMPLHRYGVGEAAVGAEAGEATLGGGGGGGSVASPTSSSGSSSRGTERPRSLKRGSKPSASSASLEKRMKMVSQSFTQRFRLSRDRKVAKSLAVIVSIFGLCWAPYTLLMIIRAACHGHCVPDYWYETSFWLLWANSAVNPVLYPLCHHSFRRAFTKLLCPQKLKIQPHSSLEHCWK

SMILES: CC(O)COc1ccc2c(c1)CCC1(CCN(C3CCC3)CC1)O2 (stereo not drawn)
Ki (Histamine H3 receptor [1]): 25 nM
Ki (Histamine H3 receptor [2]): 99 nM

SMILES: COCCOc1ccc2c(c1)CCC1(CCN(C3CCC3)CC1)O2
Ki (Histamine H3 receptor [1]): 42 nM
Ki (Histamine H3 receptor [2]): 91 nM

SMILES: CC[C@@H](O)COc1ccc2c(c1)CCC1(CCN(C3CCC3)CC1)O2
Ki (Histamine H3 receptor [1]): 15 nM
Ki (Histamine H3 receptor [2]): 86 nM

SMILES: CSCCOc1ccc2c(c1)CCC1(CCN(C3CCC3)CC1)O2
Ki (Histamine H3 receptor [1]): 38 nM
Ki (Histamine H3 receptor [2]): 86 nM

SMILES: c1cc2c(cc1OCC1CCSCC1)CCC1(CCN(C3CCC3)CC1)O2
Ki (Histamine H3 receptor [1]): 12 nM
Ki (Histamine H3 receptor [2]): 48 nM

SMILES: CS(=O)(=O)CCCOc1ccc2c(c1)CCC1(CCN(C3CCC3)CC1)O2
Ki (Histamine H3 receptor [1]): 10 nM
Ki (Histamine H3 receptor [2]): 41 nM
Ki (Histamine H1 receptor): > 10000 nM
Ki (Histamine H2 receptor): > 10000 nM
Ki (Histamine H4 receptor): > 10000 nM
half-life [3]: > 40 min
half-life [4]: > 40 min
half-life [5]: > 40 min
half-life [6]: > 40 min
IC50 (Cytochrome P450 1A2): > 30000 nM
IC50 (Cytochrome P450 2C9): > 30000 nM
IC50 (Cytochrome P450 2C19): > 30000 nM
IC50 (Cytochrome P450 2D6): > 30000 nM
IC50 (Cytochrome P450 3A4): > 30000 nM
half-life [7]: 54 min
Vd [8]: 1.2 L/kg
clearance [9]: 16 mL/min/kg
AUC(0-t) [10]: 586 ng·h/mL
Cmax [11]: 142 ng/mL
bioavailability [12]: 13%
Kp at 6 h [13]: 0.73

SMILES: c1cc2c(cc1OCC1CCCO1)CCC1(CCN(C3CCC3)CC1)O2 (stereo not drawn)
Ki (Histamine H3 receptor [1]): 16 nM
Ki (Histamine H3 receptor [2]): 50 nM

SMILES: OCCOc1ccc2c(c1)CCC1(CCN(C3CCC3)CC1)O2
Ki (Histamine H3 receptor [1]): 126 nM
Ki (Histamine H3 receptor [2]): 368 nM

SMILES: CS(=O)(=O)CCOc1ccc2c(c1)CCC1(CCN(C3CCC3)CC1)O2
Ki (Histamine H3 receptor [1]): 39 nM
Ki (Histamine H3 receptor [2]): 157 nM

SMILES: CC[C@H](O)COc1ccc2c(c1)CCC1(CCN(C3CCC3)CC1)O2
Ki (Histamine H3 receptor [1]): 26 nM
Ki (Histamine H3 receptor [2]): 112 nM

SMILES: CSCCCOc1ccc2c(c1)CCC1(CCN(C3CCC3)CC1)O2
Ki (Histamine H3 receptor [1]): 15 nM
Ki (Histamine H3 receptor [2]): 64 nM

SMILES: CC(C)(O)COc1ccc2c(c1)CCC1(CCN(C3CCC3)CC1)O2
Ki (Histamine H3 receptor [1]): 18 nM
Ki (Histamine H3 receptor [2]): 74 nM

SMILES: c1cc2c(cc1OCC1CCOC1)CCC1(CCN(C3CCC3)CC1)O2 (stereo not drawn)
Ki (Histamine H3 receptor [1]): 18 nM
Ki (Histamine H3 receptor [2]): 49 nM

Further lines, with some results ahead:

Ki (Histamine H3 receptor [1]): 4 nM
Ki (Histamine H3 receptor [2]): 9 nM
Ki (Histamine H1 receptor): > 10000 nM
Ki (Histamine H2 receptor): > 10000 nM
Ki (Histamine H4 receptor): > 10000 nM
half-life [3]: > 40 min
half-life [4]: > 40 min
half-life [5]: > 40 min
half-life [6]: > 40 min
IC50 (Cytochrome P450 2D6): 11000 nM
half-life [7]: 114 min
Vd [8]: 3.6 L/kg
clearance [9]: 23 mL/min/kg
AUC(0-t) [10]: 713 ng·h/mL
Cmax [11]: 157 ng/mL
bioavailability [12]: 22%
Kp at 6 h [13]: 0.73
SMILES: O=S1(=O)CCC(COc2ccc3c(c2)CCC2(CCN(C4CCC4)CC2)O3)CC1

Ki (Histamine H3 receptor [1]): 23 nM
Ki (Histamine H3 receptor [2]): 62 nM
SMILES: c1cc2c(cc1OC1CCSCC1)CCC1(CCN(C3CCC3)CC1)O2

Ki (Histamine H3 receptor [1]): 17 nM
Ki (Histamine H3 receptor [2]): 42 nM
SMILES: c1cc2c(cc1OC1CCSC1)CCC1(CCN(C3CCC3)CC1)O2 (stereo not drawn)

Ki (Histamine H3 receptor [1]): 7 nM
Ki (Histamine H3 receptor [2]): 24 nM
Ki (Histamine H1 receptor): > 10000 nM
Ki (Histamine H2 receptor): > 10000 nM
Ki (Histamine H4 receptor): > 10000 nM
half-life [3]: > 40 min
half-life [4]: > 40 min
half-life [5]: > 40 min
half-life [6]: > 40 min
IC50 (Cytochrome P450 2D6): 6600 nM
half-life [7]: 102 min
Vd [8]: 2.8 L/kg
clearance [9]: 19 mL/min/kg
AUC(0-t) [10]: 1790 ng·h/mL
Cmax [11]: 460 ng/mL
bioavailability [12]: 48%
Kp at 6 h [13]: 1
inhibition [14]: 63%
inhibition [15]: 78%
inhibition [16]: 50%
fraction unbound [17]: 0.23
fraction unbound [18]: 0.27
fraction unbound [19]: 0.27
SMILES: O=S1(=O)CCC(Oc2ccc3c(c2)CCC2(CCN(C4CCC4)CC2)O3)CC1
inhibition in vivo at 3 mg/kg (Rattus norvegicus): 61%

Ki (Histamine H3 receptor [1]): 23 nM
Ki (Histamine H3 receptor [2]): 44 nM
SMILES: O=S1(=O)CCC(Oc2ccc3c(c2)CCC2(CCN(C4CCC4)CC2)O3)C1 (stereo not drawn)

Ki (Histamine H3 receptor [1]): 15 nM
Ki (Histamine H3 receptor [2]): 42 nM
SMILES: c1cc2c(cc1OC1CCOCC1)CCC1(CCN(C3CCC3)CC1)O2

Ki (Histamine H3 receptor [1]): 27 nM
Ki (Histamine H3 receptor [2]): 119 nM
SMILES: c1cc2c(cc1O[C@@H]1CCOC1)CCC1(CCN(C3CCC3)CC1)O2

Ki (Histamine H3 receptor [1]): 15 nM
Ki (Histamine H3 receptor [2]): 39 nM
SMILES: c1cc2c(cc1O[C@H]1CCOC1)CCC1(CCN(C3CCC3)CC1)O2
